Measurements: PubChem BioAssay AID1963831 (Molecular Pharmacology Branch, DTP, NCI, 2024)

System: 889142-216-R-J1-PDC complex spheroid viability
Assay: Anticancer human tumor 889142-216-R-J1-PDC patient-derived bladder carcinoma cell line growth inhibition [POLQ]
Conditions: for IC50: curve of first compound; for viability, T/C: stronger effect = lower value
How it was run: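 PDC + HUVEC + MSC complex spheroids; POLQ inhibitors ± partner drugs; top conc. at/near clinical Cmax, else 10 microM (SN-38 1 microM), half-log dilutions; 37 degrees C, 5% CO2.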

[1] = second compound 0.0316 µM, first compound 0.0316 µM
[2] = second compound 0.0316 µM, first compound 0.1 µM
[3] = second compound 0.0316 µM, first compound 0.316 µM
[4] = second compound 0.0316 µM, first compound 1 µM
[5] = second compound 0.0316 µM, first compound 3.16 µM
[6] = second compound 0.0316 µM, first compound 10 µM
[7] = second compound 0.1 µM, first compound 0.0316 µM
[8] = second compound 0.1 µM, first compound 0.1 µM
[9] = second compound 0.1 µM, first compound 0.316 µM
[10] = second compound 0.1 µM, first compound 1 µM
[11] = second compound 0.1 µM, first compound 3.16 µM
[12] = second compound 0.1 µM, first compound 10 µM
[13] = second compound 0.316 µM, first compound 0.0316 µM
[14] = second compound 0.316 µM, first compound 0.1 µM
[15] = second compound 0.316 µM, first compound 0.316 µM
[16] = second compound 0.316 µM, first compound 1 µM
[17] = second compound 0.316 µM, first compound 3.16 µM
[18] = second compound 0.316 µM, first compound 10 µM
[19] = second compound 1 µM, first compound 0.0316 µM
[20] = second compound 1 µM, first compound 0.1 µM
[21] = second compound 1 µM, first compound 0.316 µM
[22] = second compound 1 µM, first compound 1 µM
[23] = second compound 1 µM, first compound 3.16 µM
[24] = second compound 1 µM, first compound 10 µM
[25] = second compound 3.16 µM, first compound 0.0316 µM
[26] = second compound 3.16 µM, first compound 0.1 µM
[27] = second compound 3.16 µM, first compound 0.316 µM
[28] = second compound 3.16 µM, first compound 1 µM
[29] = second compound 3.16 µM, first compound 3.16 µM
[30] = second compound 3.16 µM, first compound 10 µM
[31] = second compound 10 µM, first compound 0.0316 µM
[32] = second compound 10 µM, first compound 0.1 µM
[33] = second compound 10 µM, first compound 0.316 µM
[34] = second compound 10 µM, first compound 1 µM
[35] = second compound 10 µM, first compound 3.16 µM
[36] = second compound 10 µM, first compound 10 µM
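Note: spheroids exposed to compounds for seven days.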
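Throughout, for viability, T/C: 100% = DMSO vehicle control viability.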

Compound: CC(C)n1c(=O)n(C)c2cnc3cc(F)c(-c4ccc(OCCCN5CCCCC5)nc4)cc3c21 + COC1C(OC(N)=O)C(O)C(Oc2ccc3c(O)c(NC(=O)c4ccc(O)c(CC=C(C)C)c4)c(=O)oc3c2C)OC1(C)C
- IC50 (second compound 0.0316 µM): > 10 µM
- IC50 (second compound 0.1 µM): 6.09 µM
- IC50 (second compound 0.316 µM): > 10 µM
- IC50 (second compound 1 µM): > 10 µM
- IC50 (second compound 3.16 µM): 8.69 µM
- IC50 (second compound 10 µM): > 10 µM
- viability, T/C [1]: 91.2%
- viability, T/C [2]: 86.3%
- viability, T/C [3]: 78.3%
- viability, T/C [4]: 86.5%
- viability, T/C [5]: 54.6%
- viability, T/C [6]: 52.8%
- viability, T/C [7]: 88.6%
- viability, T/C [8]: 105%
- viability, T/C [9]: 81.7%
- viability, T/C [10]: 85.8%
- viability, T/C [11]: 60.4%
- viability, T/C [12]: 41.5%
- viability, T/C [13]: 105%
- viability, T/C [14]: 71.1%
- viability, T/C [15]: 85.8%
- viability, T/C [16]: 76.8%
- viability, T/C [17]: 58.9%
- viability, T/C [18]: 56.8%
- viability, T/C [19]: 113%
- viability, T/C [20]: 86.2%
- viability, T/C [21]: 80.4%
- viability, T/C [22]: 71.2%
- viability, T/C [23]: 67.1%
- viability, T/C [24]: 52.2%
- viability, T/C [25]: 92.4%
- viability, T/C [26]: 106%
- viability, T/C [27]: 88.7%
- viability, T/C [28]: 71.4%
- viability, T/C [29]: 61.6%
- viability, T/C [30]: 46.9%
- viability, T/C [31]: 94.4%
- viability, T/C [32]: 92.8%
- viability, T/C [33]: 81.3%
- viability, T/C [34]: 88%
- viability, T/C [35]: 65.9%
- viability, T/C [36]: 53.7%

Compound: CCc1cc2c(N3CCc4c(cc(Cn5ccnc5)cc4-c4cn(C)nc4C(F)(F)F)C3=O)cc(C)nc2c(OC)n1 + COC1C(OC(N)=O)C(O)C(Oc2ccc3c(O)c(NC(=O)c4ccc(O)c(CC=C(C)C)c4)c(=O)oc3c2C)OC1(C)C
- IC50 (second compound 0.0316 µM): > 10 µM
- IC50 (second compound 0.1 µM): > 10 µM
- IC50 (second compound 0.316 µM): > 10 µM
- IC50 (second compound 1 µM): > 10 µM
- IC50 (second compound 3.16 µM): > 10 µM
- IC50 (second compound 10 µM): > 10 µM
- viability, T/C [1]: 112%
- viability, T/C [2]: 124%
- viability, T/C [3]: 113%
- viability, T/C [4]: 97%
- viability, T/C [5]: 79.9%
- viability, T/C [6]: 68.6%
- viability, T/C [7]: 130%
- viability, T/C [8]: 115%
- viability, T/C [9]: 101%
- viability, T/C [10]: 101%
- viability, T/C [11]: 85.7%
- viability, T/C [12]: 58.2%
- viability, T/C [13]: 120%
- viability, T/C [14]: 132%
- viability, T/C [15]: 107%
- viability, T/C [16]: 107%
- viability, T/C [17]: 92.9%
- viability, T/C [18]: 67.7%
- viability, T/C [19]: 126%
- viability, T/C [20]: 123%
- viability, T/C [21]: 131%
- viability, T/C [22]: 105%
- viability, T/C [23]: 74.4%
- viability, T/C [24]: 61.9%
- viability, T/C [25]: 112%
- viability, T/C [26]: 106%
- viability, T/C [27]: 137%
- viability, T/C [28]: 98.4%
- viability, T/C [29]: 81.9%
- viability, T/C [30]: 55.1%
- viability, T/C [31]: 119%
- viability, T/C [32]: 102%
- viability, T/C [33]: 111%
- viability, T/C [34]: 92.2%
- viability, T/C [35]: 85.8%
- viability, T/C [36]: 62.8%
